Reference: PubChem BioAssay (NCI)
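In this assay, cells in 96-well plates receive the compound at five concentrations for 48 hours. Endpoints are linearly interpolated between the surrounding concentrations. GI50 = concentration required for 50% inhibition of growth. Definition used: TGI = concentration required for complete inhibition of growth.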

Experiments:
Experiment in all cases: inhibition of tumour cell growth, NCI panel, 48 h
786-0 renal = system: 786-0 renal
A498 renal = system: A498 renal
A549 NSCLC = system: A549 NSCLC
ACHN renal = system: ACHN renal
BT-549 breast = system: BT-549 breast
CAKI-1 renal = system: CAKI-1 renal
CCRF-CEM leukemia = system: CCRF-CEM leukemia
DU-145 prostate = system: DU-145 prostate
EKVX NSCLC = system: EKVX NSCLC
HCC-2998 colon = system: HCC-2998 colon
HL-60(TB) leukemia = system: HL-60(TB) leukemia
HOP-62 NSCLC = system: HOP-62 NSCLC
HOP-92 NSCLC = system: HOP-92 NSCLC
HS 578T breast = system: HS 578T breast
HT29 colon = system: HT29 colon
IGROV1 ovarian = system: IGROV1 ovarian
KM12 colon = system: KM12 colon
LOX IMVI melanoma = system: LOX IMVI melanoma
M14 melanoma = system: M14 melanoma
MALME-3M melanoma = system: MALME-3M melanoma
MCF7 breast = system: MCF7 breast
MDA-MB-231 breast = system: MDA-MB-231 breast
MDA-MB-435 = system: MDA-MB-435
MOLT-4 leukemia = system: MOLT-4 leukemia
NCI-H226 lung = system: NCI-H226 lung
NCI-H23 lung = system: NCI-H23 lung
NCI-H460 lung = system: NCI-H460 lung
NCI/ADR-RES ovarian = system: NCI/ADR-RES ovarian
OVCAR-4 ovarian = system: OVCAR-4 ovarian
OVCAR-5 ovarian = system: OVCAR-5 ovarian
PC-3 prostate = system: PC-3 prostate
RPMI-8226 leukemia = system: RPMI-8226 leukemia
RXF 393 renal = system: RXF 393 renal
SF-268 CNS = system: SF-268 CNS
SF-295 CNS = system: SF-295 CNS
SF-539 CNS = system: SF-539 CNS
SK-MEL-28 melanoma = system: SK-MEL-28 melanoma
SK-MEL-5 melanoma = system: SK-MEL-5 melanoma
SK-OV-3 ovarian = system: SK-OV-3 ovarian
SN12C renal = system: SN12C renal
SNB-19 CNS = system: SNB-19 CNS
SNB-75 CNS = system: SNB-75 CNS
SR leukemia = system: SR leukemia
SW-620 colon = system: SW-620 colon
T-47D breast = system: T-47D breast
TK-10 renal = system: TK-10 renal
U251 CNS = system: U251 CNS
UACC-257 melanoma = system: UACC-257 melanoma
UACC-62 melanoma = system: UACC-62 melanoma
UO-31 renal = system: UO-31 renal

Question: How did the GI50 (786-0 renal) turn out when `Cc1ccc(-c2csc(N/N=C/c3nc4ccccc4n3C3CC3)n2)cc1` was run?
Answer: The GI50 was 4.12 µM.

Question: And the TGI (786-0 renal)?
Answer: The TGI was 16 µM.

Question: What about the GI50 (A498 renal) of the same molecule?
Answer: Its GI50 is 14.4 µM.

Question: What about the TGI (A498 renal) of the same molecule?
Answer: The TGI was 33.6 µM.

Question: What about the GI50 (A549 NSCLC) of the same molecule?
Answer: Its GI50 is 5.55 µM.

Question: And the TGI (A549 NSCLC)?
Answer: Its TGI is 26.9 µM.

Question: And the GI50 (ACHN renal)?
Answer: Its GI50 is 1.58 µM.

Question: What about the TGI (ACHN renal) of the same molecule?
Answer: The TGI was 3.08 µM.

Question: And the GI50 (BT-549 breast)?
Answer: Its GI50 is 4.47 µM.

Question: What about the TGI (BT-549 breast) of the same molecule?
Answer: Its TGI is 17.6 µM.

Question: And the GI50 (CAKI-1 renal)?
Answer: Its GI50 is 1.52 µM.

Question: And the TGI (CAKI-1 renal)?
Answer: Its TGI is 3.07 µM.

Question: What about the GI50 (CCRF-CEM leukemia) of the same molecule?
Answer: The GI50 was 2.15 µM.

Question: What about the TGI (CCRF-CEM leukemia) of the same molecule?
Answer: The TGI was 5.39 µM.

Question: And the GI50 (DU-145 prostate)?
Answer: Its GI50 is 1.83 µM.

Question: What about the TGI (DU-145 prostate) of the same molecule?
Answer: The TGI was 3.42 µM.

Question: And the GI50 (EKVX NSCLC)?
Answer: The GI50 was 21 µM.

Question: What about the TGI (EKVX NSCLC) of the same molecule?
Answer: The TGI was 55.9 µM.

Question: What about the GI50 (HCC-2998 colon) of the same molecule?
Answer: Its GI50 is 16.2 µM.

Question: And the TGI (HCC-2998 colon)?
Answer: Its TGI is 46.5 µM.

Question: And the GI50 (HL-60(TB) leukemia)?
Answer: Its GI50 is 1.86 µM.

Question: And the TGI (HL-60(TB) leukemia)?
Answer: The TGI was 4.38 µM.

Question: What about the GI50 (HOP-62 NSCLC) of the same molecule?
Answer: Its GI50 is 3.67 µM.

Question: And the TGI (HOP-62 NSCLC)?
Answer: Its TGI is 49.7 µM.

Question: What about the GI50 (HOP-92 NSCLC) of the same molecule?
Answer: Its GI50 is 1.65 µM.

Question: And the TGI (HOP-92 NSCLC)?
Answer: The TGI was 3.13 µM.

Question: What about the GI50 (HS 578T breast) of the same molecule?
Answer: The GI50 was 11.7 µM.

Question: What about the TGI (HS 578T breast) of the same molecule?
Answer: The TGI was 57 µM.

Question: And the GI50 (HT29 colon)?
Answer: The GI50 was 1.84 µM.

Question: What about the TGI (HT29 colon) of the same molecule?
Answer: Its TGI is 3.48 µM.

Question: What about the GI50 (IGROV1 ovarian) of the same molecule?
Answer: The GI50 was 5.73 µM.

Question: And the TGI (IGROV1 ovarian)?
Answer: The TGI was 35.9 µM.

Question: And the GI50 (KM12 colon)?
Answer: Its GI50 is 16.3 µM.

Question: And the TGI (KM12 colon)?
Answer: Its TGI is 59.8 µM.

Question: And the GI50 (LOX IMVI melanoma)?
Answer: The GI50 was 4.61 µM.

Question: What about the TGI (LOX IMVI melanoma) of the same molecule?
Answer: The TGI was 36.4 µM.

Question: And the GI50 (M14 melanoma)?
Answer: Its GI50 is 1.75 µM.

Question: What about the TGI (M14 melanoma) of the same molecule?
Answer: The TGI was 3.43 µM.

Question: And the GI50 (MALME-3M melanoma)?
Answer: Its GI50 is 1.99 µM.

Question: What about the TGI (MALME-3M melanoma) of the same molecule?
Answer: Its TGI is 3.84 µM.

Question: What about the GI50 (MCF7 breast) of the same molecule?
Answer: The GI50 was 1.92 µM.

Question: What about the TGI (MCF7 breast) of the same molecule?
Answer: The TGI was 4.39 µM.

Question: What about the GI50 (MDA-MB-231 breast) of the same molecule?
Answer: The GI50 was 10.6 µM.

Question: And the TGI (MDA-MB-231 breast)?
Answer: Its TGI is 41.4 µM.

Question: What about the GI50 (MDA-MB-435) of the same molecule?
Answer: The GI50 was 10.5 µM.

Question: And the TGI (MDA-MB-435)?
Answer: Its TGI is 23.6 µM.

Question: And the GI50 (MOLT-4 leukemia)?
Answer: Its GI50 is 2.18 µM.

Question: And the TGI (MOLT-4 leukemia)?
Answer: The TGI was 4.75 µM.

Question: And the GI50 (NCI-H226 lung)?
Answer: The GI50 was 8.34 µM.

Question: And the TGI (NCI-H226 lung)?
Answer: The TGI was over 100 µM.

Question: And the GI50 (NCI-H23 lung)?
Answer: The GI50 was 20 µM.

Question: And the TGI (NCI-H23 lung)?
Answer: The TGI was 61 µM.

Question: What about the GI50 (NCI-H460 lung) of the same molecule?
Answer: The GI50 was 7.72 µM.

Question: And the TGI (NCI-H460 lung)?
Answer: The TGI was 27.1 µM.

Question: What about the GI50 (NCI/ADR-RES ovarian) of the same molecule?
Answer: Its GI50 is 13.6 µM.

Question: And the TGI (NCI/ADR-RES ovarian)?
Answer: The TGI was over 100 µM.

Question: What about the GI50 (OVCAR-4 ovarian) of the same molecule?
Answer: Its GI50 is 1.74 µM.

Question: And the TGI (OVCAR-4 ovarian)?
Answer: Its TGI is 3.33 µM.

Question: And the GI50 (OVCAR-5 ovarian)?
Answer: The GI50 was 17.6 µM.

Question: And the TGI (OVCAR-5 ovarian)?
Answer: Its TGI is 39.5 µM.

Question: What about the GI50 (PC-3 prostate) of the same molecule?
Answer: Its GI50 is 12 µM.

Question: What about the TGI (PC-3 prostate) of the same molecule?
Answer: Its TGI is 25.7 µM.

Question: What about the GI50 (RPMI-8226 leukemia) of the same molecule?
Answer: The GI50 was 1.95 µM.

Question: And the TGI (RPMI-8226 leukemia)?
Answer: The TGI was 4.71 µM.

Question: And the GI50 (RXF 393 renal)?
Answer: The GI50 was 1.95 µM.

Question: And the TGI (RXF 393 renal)?
Answer: The TGI was 4.46 µM.

Question: And the GI50 (SF-268 CNS)?
Answer: The GI50 was 4.21 µM.

Question: What about the TGI (SF-268 CNS) of the same molecule?
Answer: The TGI was 21.1 µM.

Question: What about the GI50 (SF-295 CNS) of the same molecule?
Answer: Its GI50 is 45.5 µM.

Question: And the TGI (SF-295 CNS)?
Answer: Its TGI is over 100 µM.

Question: What about the GI50 (SF-539 CNS) of the same molecule?
Answer: The GI50 was 12.2 µM.

Question: And the TGI (SF-539 CNS)?
Answer: The TGI was 27.5 µM.

Question: What about the GI50 (SK-MEL-28 melanoma) of the same molecule?
Answer: The GI50 was 1.82 µM.

Question: And the TGI (SK-MEL-28 melanoma)?
Answer: The TGI was 3.35 µM.

Question: And the GI50 (SK-MEL-5 melanoma)?
Answer: The GI50 was 2.04 µM.

Question: What about the TGI (SK-MEL-5 melanoma) of the same molecule?
Answer: Its TGI is 11.4 µM.

Question: And the GI50 (SK-OV-3 ovarian)?
Answer: Its GI50 is 8.53 µM.

Question: What about the TGI (SK-OV-3 ovarian) of the same molecule?
Answer: Its TGI is over 100 µM.

Question: What about the GI50 (SN12C renal) of the same molecule?
Answer: The GI50 was 8.55 µM.

Question: What about the TGI (SN12C renal) of the same molecule?
Answer: Its TGI is 31.5 µM.

Question: What about the GI50 (SNB-19 CNS) of the same molecule?
Answer: The GI50 was 5.19 µM.

Question: What about the TGI (SNB-19 CNS) of the same molecule?
Answer: Its TGI is 79.4 µM.

Question: What about the GI50 (SNB-75 CNS) of the same molecule?
Answer: The GI50 was 1.86 µM.

Question: What about the TGI (SNB-75 CNS) of the same molecule?
Answer: The TGI was 3.9 µM.

Question: What about the GI50 (SR leukemia) of the same molecule?
Answer: The GI50 was 2.02 µM.

Question: What about the TGI (SR leukemia) of the same molecule?
Answer: Its TGI is 5.63 µM.

Question: And the GI50 (SW-620 colon)?
Answer: Its GI50 is 1.62 µM.

Question: What about the TGI (SW-620 colon) of the same molecule?
Answer: Its TGI is 3.29 µM.

Question: What about the GI50 (T-47D breast) of the same molecule?
Answer: Its GI50 is 2.14 µM.

Question: What about the TGI (T-47D breast) of the same molecule?
Answer: The TGI was 5.27 µM.

Question: What about the GI50 (TK-10 renal) of the same molecule?
Answer: The GI50 was 1.68 µM.

Question: What about the TGI (TK-10 renal) of the same molecule?
Answer: The TGI was 3.05 µM.

Question: And the GI50 (U251 CNS)?
Answer: Its GI50 is 2.72 µM.

Question: And the TGI (U251 CNS)?
Answer: The TGI was 8.33 µM.

Question: And the GI50 (UACC-257 melanoma)?
Answer: Its GI50 is 1.51 µM.

Question: What about the TGI (UACC-257 melanoma) of the same molecule?
Answer: Its TGI is 2.93 µM.

Question: What about the GI50 (UACC-62 melanoma) of the same molecule?
Answer: The GI50 was 16.5 µM.

Question: And the TGI (UACC-62 melanoma)?
Answer: Its TGI is 31 µM.

Question: And the GI50 (UO-31 renal)?
Answer: The GI50 was 1.6 µM.

Question: What about the TGI (UO-31 renal) of the same molecule?
Answer: Its TGI is 3.05 µM.
